Reference: patent US10736932B2, “Small molecule Ras inhibitors” (Ohio State Innovation Foundation, priority 2014, dated 2020)
Like-named read-outs stand apart in the source and are kept apart here. Square brackets hold non-standard residues; d marks the D form. Peptide text beside a SMILES is read from it. * marks the point of attachment. Lys(5-FITC)NH2 = NC(=O)[C@H](CCCCNC(=S)Nc1ccc2c(c1)C(=O)OC21c2ccc(O)cc2Oc2cc(O)ccc21)N*; FITC = O=C1OC2(c3ccc(O)cc3Oc3cc(O)ccc32)c2ccc(NC(=S)*)cc21; Phe(4-F) = N[C@@H](Cc1ccc(F)cc1)C(=O)O; d2Nal = N[C@H](Cc1ccc2ccccc2c1)C(=O)O; Benzoyl(3-Br) = O=C(c1cccc(Br)c1)*; Isonicotinoyl = O=C(c1ccncc1)*; Phg = N[C@H](C(=O)O)c1ccccc1; Tle = CC(C)(C)[C@H](N)C(=O)O; X2 = O=C(C=Cc1ccc(Cl)cc1)*; X5 = O=C(c1cc(F)cc(Br)c1)*; dNle = CCCC[C@@H](N)C(=O)O; X4 = O=C(c1ccc(Cl)nc1)*; Dap = NC[C@H](N)C(=O)O; Bn = c1ccc(C*)cc1

Key:
K-Ras(G12V) = molecular target: T1, K-Ras(G12V) (Homo sapiens, UniProt P01116, G12V); assay: Fluorescence anisotropy (FA) binding of FITC-labeled cyclic peptides to K-Ras
T1 construct: The G12V mutant K-Ras (amino acids 1-185) was recombinantly fused; GST (N, cleaved yes); made in house; host or cells: Escherichia coli BL21
T1 sequence (P01116 1-185 isoform P01116-2 G12V): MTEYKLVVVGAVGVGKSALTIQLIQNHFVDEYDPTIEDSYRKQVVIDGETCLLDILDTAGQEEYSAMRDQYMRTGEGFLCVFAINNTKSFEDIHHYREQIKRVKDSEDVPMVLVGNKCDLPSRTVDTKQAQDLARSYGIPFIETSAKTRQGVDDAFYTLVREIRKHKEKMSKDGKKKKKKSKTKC
Description: The 13 hits were resynthesized, labeled with fluorescein isothiocyanate (FITC), purified by HPLC, and tested for binding to K-Ras by fluorescence anisotropy (FA).
For cyclic peptides derived from single library beads (library screening), K-Ras protein (non-GST fusion, 0-20 μM) was incubated with the TMR-labeled peptide (50 or 100 nM) in 20 μL of the blocking buffer for 2.5 h at 24° C. The FA values were measured on a Molecular Devices Spectramax M5 spectrofluorimeter, with excitation and emission wavelengths at 545 and 585 nm, respectively. Equilibrium dissociation constants (KD) were determined by plotting the FA values as a function of K-Ras concentration and fitting the data to the equation
[formula] where Y is the measured anisotropy at a given K-Ras concentration x; L is the peptide concentration; Qb/Qf is the correction fact for dye-protein interaction; Amax is the maximum anisotropy at saturating K-Ras concentration; and Amin is the minimum anisotropy. FA analyses with resynthesized FITC-labeled peptides were similarly carried out, except that the excitation and emission wavelengths were at 494 and 520 nm, respectively.

[1] = molecular target: T2, K-Ras / Raf RBD interaction (Homo sapiens, UniProt P01116, G12V); assay: HTRF assay, inhibition of Ras-Raf RBD interaction; format: binding;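 note: HTRF signal read after overnight incubation of the assay plate at 4 °C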
T2 construct: The G12V mutant K-Ras (amino acids 1-185) was recombinantly fused; GST (N, cleaved yes); made in house; host or cells: Escherichia coli BL21
T2 sequence (P01116 1-185 isoform P01116-2 G12V): as above
Description: Recombinant HA-tagged K-Ras (no GST, 50 nM), GST-Raf RBD (50 nM each), a monoclonal anti-HA antibody labeled with acceptor d2 (2 μg/mL), a monoclonal anti-GST antibody labeled with donor Tb (0.25 μg/mL) (Cisbio), and increasing concentrations of cyclic peptide (0-20 μM) were mixed inPBS (total volume of 20 μL) in a 384-well plate. The plate was incubated overnight at 4° C. and the HTRF signal was measured on a Molecular Devices Spectramax M5 or a Tecan infinite M1000 Pro plate reader. The data were analyzed by Prism 6.0 from Graphpad Software, Inc. (La Jolla, Calif.) and IC50 values were obtained by fitting the data to dose-response-inhibition curve.

A549 cells = assay: Cellular uptake of FITC-labeled peptides (live-cell confocal microscopy, FACS); conditions: Gln8 replaced with L- or D-arginine
[2] = Table 2, FITC-labeled peptide, read-out: Binding affinity KD
[3] = Table 1, resynthesized FITC-labeled peptides, FA, K-Ras, read-out: KD

SMILES | Kd (K-Ras(G12V); [2]) | further results
C[C@H]1NC(=O)[C@H](C(C)(C)C)NC(=O)[C@H](CNC(=O)c2cc(F)cc(Br)c2)NC(=O)[C@H](CCC(N)=O)NC(=O)[C@@H](CCCCN)NC(=O)[C@H](Cc2ccc(F)cc2)NC(=O)[C@H](CCCNC(=N)N)NC(=O)[C@@H](Cc2ccc3ccccc3c2)NC(=O)[C@H](CCCCNC(=S)Nc2ccc3c(c2)C(=O)OC32c3ccc(O)cc3Oc3cc(O)ccc32)NC(=O)[C@H](CCCNC(=N)N)NC(=O)[C@H](CCCNC(=N)N)NC1=O [Cyclorasin 9A25, (Dap(3-bromo-5-fluorobenzoyl)-Tle-ala-Arg-Arg-Lys(FITC)-nal-Arg-Fpa-lys-Gln)] (cyclo([Dap](X5)[Tle][dA]RRK(FITC)[d2Nal]R[Phe(4-F)][dK]Q)) | 470 ± 100 nM | 
C[C@H]1NC(=O)[C@H](C(C)(C)C)NC(=O)[C@H](CNC(=O)c2ccc(Cl)nc2)NC(=O)[C@H](CCC(N)=O)NC(=O)[C@@H](CCCCN)NC(=O)[C@H](Cc2ccc(F)cc2)NC(=O)[C@H](CCCNC(=N)N)NC(=O)[C@@H](Cc2ccc3ccccc3c2)NC(=O)[C@H](CCCCNC(=S)Nc2ccc3c(c2)C(=O)OC32c3ccc(O)cc3Oc3cc(O)ccc32)NC(=O)[C@H](CCCNC(=N)N)NC(=O)[C@H](CCCNC(=N)N)NC1=O [Cyclorasin 9A27, (Dap(6-chloronicotinoyl)-Tle-ala-Arg-Arg-Lys(FITC)-nal-Arg-Fpa-lys-Gln)] (cyclo([Dap](X4)[Tle][dA]RRK(FITC)[d2Nal]R[Phe(4-F)][dK]Q)) | 1000 ± 100 nM | 
CC(C)[C@H]1NC(=O)[C@H](Cc2ccc(F)cc2)NC(=O)[C@H](Cc2ccc(O)cc2)NC(=O)[C@H](CCCNC(=N)N)NC(=O)[C@H](Cc2ccc(F)cc2)NC(=O)[C@H](CCCNC(=N)N)NC(=O)[C@@H](Cc2ccc3ccccc3c2)NC(=O)[C@H](CCCNC(=N)N)NC(=O)[C@H](CCCNC(=N)N)NC(=O)[C@H](CCC(=O)N[C@@H](CCCCNC(=S)Nc2ccc3c(c2)C(=O)OC32c3ccc(O)cc3Oc3cc(O)ccc32)C(N)=O)NC1=O [Cyclorasin 1A, (Arg-Arg-nal-Arg-Fpa-Arg-Tyr-Fpa-val-Gln)] (cyclo(RR[d2Nal]R[Phe(4-F)]RY[Phe(4-F)][dV]E(Lys(5-FITC)NH2))) |  | Kd (K-Ras(G12V); [3]): > 10000 nM
C[C@H]1NC(=O)[C@H](C(C)(C)C)NC(=O)[C@H]([C@@H](C)OCc2ccccc2)NC(=O)[C@H](CCC(N)=O)NC(=O)[C@@H](CCCCN)NC(=O)[C@H](Cc2ccc(F)cc2)NC(=O)[C@H](CCCNC(=N)N)NC(=O)[C@@H](Cc2ccc3ccccc3c2)NC(=O)[C@H](CCCCNC(=S)Nc2ccc3c(c2)C(=O)OC32c3ccc(O)cc3Oc3cc(O)ccc32)NC(=O)[C@H](CCCNC(=N)N)NC(=O)[C@H](CCCNC(=N)N)NC1=O [Cyclorasin 9A26, (Thr(Bzl)-Tle-ala-Arg-Arg-Lys(FITC)-nal-Arg-Fpa-lys-Gln)] (cyclo(K(FITC)[d2Nal]R[Phe(4-F)][dK]QT(Bn)[Tle][dA]RR)) | 710 ± 70 nM | 
C[C@H]1NC(=O)[C@H](C(C)(C)C)NC(=O)[C@H](CNC(=O)c2cccc(Br)c2)NC(=O)[C@H](CCC(N)=O)NC(=O)[C@@H](CCCCN)NC(=O)[C@H](Cc2ccc(F)cc2)NC(=O)[C@H](CCCNC(=N)N)NC(=O)[C@@H](Cc2ccc3ccccc3c2)NC(=O)[C@H](CCCCNC(=S)Nc2ccc3c(c2)C(=O)OC32c3ccc(O)cc3Oc3cc(O)ccc32)NC(=O)[C@H](CCCNC(=N)N)NC(=O)[C@H](CCCNC(=N)N)NC1=O [Cyclorasin 9A30, (Dap(3-bromobenzoyl)-Tle-ala-Arg-Arg-Lys(FITC)-nal-Arg-Fpa-lys-Gln)] (cyclo([Dap](Benzoyl(3-Br))[Tle][dA]RRK(FITC)[d2Nal]R[Phe(4-F)][dK]Q)) | 640 ± 70 nM | 
CCCC[C@H]1NC(=O)[C@H](Cc2ccc(F)cc2)NC(=O)[C@H](CCCNC(=N)N)NC(=O)[C@@H](Cc2ccc3ccccc3c2)NC(=O)[C@H](CCCNC(=N)N)NC(=O)[C@H](CCCNC(=N)N)NC(=O)[C@@H](CCCNC(=N)N)NC(=O)[C@@H](C)NC(=O)[C@H]([C@@H](C)O)NC(=O)[C@H](Cc2c[nH]c3ccccc23)NC(=O)[C@H](CCC(N)=O)NC1=O [Cyclorasin 9A6, (Trp-Thr-ala-arg-Arg-Arg-nal-Arg-Fpa-nle-Gln)] (cyclo(WT[dA][dR]RR[d2Nal]R[Phe(4-F)][dNle]Q)) |  | IC50 [1]: 170 nM; cell permeability relative to earlier peptides (A549 cells): improved cell permeability
C[C@H]1NC(=O)[C@H](C(C)(C)C)NC(=O)[C@H](Cc2c[nH]c3ccccc23)NC(=O)[C@H](CCC(N)=O)NC(=O)[C@@H](CCCCNC(=O)c2ccncc2)NC(=O)[C@H](Cc2ccc(F)cc2)NC(=O)[C@H](CCCNC(=N)N)NC(=O)[C@@H](Cc2ccc3ccccc3c2)NC(=O)[C@H](CCCCNC(=S)Nc2ccc3c(c2)C(=O)OC32c3ccc(O)cc3Oc3cc(O)ccc32)NC(=O)[C@H](CCCNC(=N)N)NC(=O)[C@H](CCCNC(=N)N)NC1=O [Cyclorasin 9A35, (Trp-Tle-ala-Arg-Arg-Lys(FITC)-nal-Arg-Fpa-lys(isonicotinoyl)-Gln)] (cyclo(W[Tle][dA]RRK(FITC)[d2Nal]R[Phe(4-F)][dK](Isonicotinoyl)Q)) | > 20000 nM | 
C[C@H]1NC(=O)[C@H](C(C)(C)C)NC(=O)[C@H](Cc2c[nH]c3ccccc23)NC(=O)[C@H](CCC(N)=O)NC(=O)[C@@H](CCCCNC(=O)C=Cc2ccc(Cl)cc2)NC(=O)[C@H](Cc2ccc(F)cc2)NC(=O)[C@H](CCCNC(=N)N)NC(=O)[C@@H](Cc2ccc3ccccc3c2)NC(=O)[C@H](CCCCNC(=S)Nc2ccc3c(c2)C(=O)OC32c3ccc(O)cc3Oc3cc(O)ccc32)NC(=O)[C@H](CCCNC(=N)N)NC(=O)[C@H](CCCNC(=N)N)NC1=O [Cyclorasin 9A34, (Trp-Tle-ala-Arg-Arg-Lys(FITC)-nal-Arg-Fpa-lys(4-chlorocinnamoyl)-Gln)] (cyclo(K(FITC)[d2Nal]R[Phe(4-F)][dK](X2)QW[Tle][dA]RR)) | > 20000 nM | 
C[C@H]1NC(=O)[C@H](C(C)(C)C)NC(=O)[C@H](Cc2c[nH]c3ccccc23)NC(=O)[C@H](CCC(N)=O)NC(=O)[C@@H](CCCCNC(=O)c2cc(F)cc(Br)c2)NC(=O)[C@H](Cc2ccc(F)cc2)NC(=O)[C@H](CCCNC(=N)N)NC(=O)[C@@H](Cc2ccc3ccccc3c2)NC(=O)[C@H](CCCCNC(=S)Nc2ccc3c(c2)C(=O)OC32c3ccc(O)cc3Oc3cc(O)ccc32)NC(=O)[C@H](CCCNC(=N)N)NC(=O)[C@H](CCCNC(=N)N)NC1=O [Cyclorasin 9A32, (Trp-Tle-ala-Arg-Arg-Lys(FITC)-nal-Arg-Fpa-lys(3-bromo-5-fluorobenzoyl)-Gln)] (cyclo(K(FITC)[d2Nal]R[Phe(4-F)][dK](X5)QW[Tle][dA]RR)) | > 20000 nM | 
C[C@H]1NC(=O)[C@H](C(C)(C)C)NC(=O)[C@H](Cc2c[nH]c3ccccc23)NC(=O)[C@H](CCC(N)=O)NC(=O)[C@@H](CCCCN)NC(=O)[C@H](Cc2ccc(F)cc2)NC(=O)[C@H](CCCNC(=N)N)NC(=O)[C@@H](Cc2ccc3ccccc3c2)NC(=O)[C@H](CCCCNC(=S)Nc2ccc3c(c2)C(=O)OC32c3ccc(O)cc3Oc3cc(O)ccc32)NC(=O)[C@H](CCCNC(=N)N)NC(=O)[C@H](CCCNC(=N)N)NC1=O [Cyclorasin 9A31, (Trp-Tle-ala-Arg-Arg-Lys(FITC)-nal-Arg-Fpa-lys-Gln)] (cyclo(K(FITC)[d2Nal]R[Phe(4-F)][dK]QW[Tle][dA]RR)) | 110 ± 10 nM | 
C[C@H]1NC(=O)[C@H](C(C)(C)C)NC(=O)[C@H](CNC(=O)C=Cc2ccc(Cl)cc2)NC(=O)[C@H](CCC(N)=O)NC(=O)[C@@H](CCCCN)NC(=O)[C@H](Cc2ccc(F)cc2)NC(=O)[C@H](CCCNC(=N)N)NC(=O)[C@@H](Cc2ccc3ccccc3c2)NC(=O)[C@H](CCCCNC(=S)Nc2ccc3c(c2)C(=O)OC32c3ccc(O)cc3Oc3cc(O)ccc32)NC(=O)[C@H](CCCNC(=N)N)NC(=O)[C@H](CCCNC(=N)N)NC1=O [Cyclorasin 9A28, (Dap(4-chlorocinnamoyl)-Tle-ala-Arg-Arg-Lys(FITC)-nal-Arg-Fpa-lys-Gln)] (cyclo([Dap](X2)[Tle][dA]RRK(FITC)[d2Nal]R[Phe(4-F)][dK]Q)) | 160 ± 20 nM | 
N=C(N)NCCC[C@@H]1NC(=O)[C@H](CCC(=O)N[C@@H](CCCCNC(=S)Nc2ccc3c(c2)C(=O)OC32c3ccc(O)cc3Oc3cc(O)ccc32)C(N)=O)NC(=O)[C@@H](Cc2ccccc2)NC(=O)[C@@H](CO)NC(=O)[C@H](Cc2ccc(O)cc2)NC(=O)[C@H](c2ccccc2)NC(=O)[C@H](Cc2ccc(F)cc2)NC(=O)[C@H](CCCNC(=N)N)NC(=O)[C@@H](Cc2ccc3ccccc3c2)NC(=O)[C@H](CCCNC(=N)N)NC1=O [Cyclorasin 8A, (Arg-Arg-nal-Arg-Fpa-Phg-Tyr-ser-phe-Gln)] (cyclo(RR[d2Nal]R[Phe(4-F)][Phg]Y[dS][dF]E(Lys(5-FITC)NH2))) |  | Kd (K-Ras(G12V); [3]): > 10000 nM
C[C@H]1NC(=O)[C@H](C(C)(C)C)NC(=O)[C@H](CNC(=O)c2ccncc2)NC(=O)[C@H](CCC(N)=O)NC(=O)[C@@H](CCCCN)NC(=O)[C@H](Cc2ccc(F)cc2)NC(=O)[C@H](CCCNC(=N)N)NC(=O)[C@@H](Cc2ccc3ccccc3c2)NC(=O)[C@H](CCCCNC(=S)Nc2ccc3c(c2)C(=O)OC32c3ccc(O)cc3Oc3cc(O)ccc32)NC(=O)[C@H](CCCNC(=N)N)NC(=O)[C@H](CCCNC(=N)N)NC1=O [Cyclorasin 9A29, (Dap(isonicotinoyl)-Tle-ala-Arg-Arg-Lys(FITC)-nal-Arg-Fpa-lys-Gln)] (cyclo([Dap](Isonicotinoyl)[Tle][dA]RRK(FITC)[d2Nal]R[Phe(4-F)][dK]Q)) | 1200 ± 100 nM | 
